Measured values reported in US20060045905A1, “Composition for repressing transformation growth factor beta” (Taiyokagaku Co., Ltd., priority 2004, published 2006).

Test system: mice
Assay type: in vivo
Conditions: oral administration of theanine by 5 g/kg
Excerpt: Theanine used in the invention has a high security. […] Furthermore, theanine is known as a principal component of deliciousness of tea and used as a food additive for use as gustatory. An amount of theanine to be added is not limited under the Food Sanitation Law. Moreover, differing from conventional medical substances, theanine has no adverse side effect. Consequently, the composition of the invention can be used as a safe and effective composition for repressing TGF-β.

Compound: CCNC(=O)CC[C@H](N)C(=O)O [theanine, L-theanine]
- mortality in acute toxicity test: no mice died
